Source: US20240148749A1 (priority 2021, published 2024)

Experiments:
[1] = system: microglial cells; assay: Microglial ROS/RNS, antioxidant defense and bioenergetic/mitochondrial parameters at 21 days; assay type: in vivo, mouse
Description: Data shown are mean values (±SD). Gray bars represent MnTBAP-treated mice from either CLP or control groups, and black bars represent placebo-treated mice from either CLP or Control groups. Two-way analyses of variance (ANOVAs) (CLP vs control×MnTBAP vs Placebo) were performed. When a significant interaction was observed, planned comparisons were performed for the CLP/Placebo group against the three other groups. The significance of the planned comparisons is indicated with asterisks (*p<0.05, **p<0.01, ***p<0.001, ****p<0.0001) .
Data shown are mean values (±SD). Gray bars represent MnTBAP-treated mice from either CLP or control groups, and black bars represent placebo-treated mice from either CLP or Control groups. Two-way analyses of variance (ANOVAs) (CLP vs Control×MnTBAP vs Placebo) were performed. When a significant interaction was observed, planned comparisons were performed for the CLP/Placebo group against the three other groups. The significance of the planned comparisons is indicated with asterisks (*p<0.05, **p<0.01, ***p<0.001, ****p<0.0001).
(§1) MnTBAP is commercially available: it is for example manufactured by Sigma-Aldrich, Calbiochem, etc. For use it is dissolved following the guidance provided by the manufacturer.
Brains were collected for cell dissociation and Cdllb-positive cell separation using a magnetic coupled antibody (MACS® Technology), according to the manufacturer's protocol (Miltenyi Biotec, Bergisch Gladbach, Germany) and as previously described (Schang et al., 2014). In brief, mice were intracardially perfused with NaCl 0,9%. The brains are then dissociated using the Neural Tissue Dissociation Kit containing trypsin and the gentleMACS Octo Dissociator with Heaters. From the resulting brain homogenate, cd11 b-positive cells were enriched using the anti-cd11 b MicroBeads. After elution the isolated cells were centrifuged for 5 min at 200G and conserved at −80° C.
(§2) Total RNA was isolated from cells using the RNAeasy Micro kit (Qiagen), and reverse-transcribed using Superscript® III Reverse transcriptase (Invitrogen). Real-time quantitative PCR was performed in duplicate for each sample using Power Sybr Green PCR Master Mix (Applied Biosystems) and the rate of dye incorporation was monitored using the StepOne™ Plus RealTime PCR system (Applied Biosystems). Data were analyzed by StepOne Plus RT PCR software v2.1 and Microsoft excel. Amplification specificity was assessed with a melting curve analysis. TBP transcript levels were used for normalisation of each target (=ΔCT). Real-time PCR CT values were analyzed using the 2^−(ΔCt) method to calculate the fold expression (Schmittgen et al., 2008). The data are presented as relative mRNA units with respect to control group (expressed as fold over control value). Primer sequences available upon request.
(§3) Microglial cells and brain samples were resuspended in lysis buffer (50 mM TrisHCI pH 7.5, 150 mM NaCl, 1% Triton X-100, 0.1% SDS, 1 mM EDTA, and protease inhibitor mixture), mechanically homogenized with a piston, briefly vortexed and incubated for 30 min at 4° C. Lysed samples were briefly centrifuged to remove debris, and the whole supernatant extract was collected. Aliquots of the supernatant were immediately used for the assessment of ROS level, RNS level, dual ROS/RNS level, SOD activity, and Acetyl-Coa level. The protein content was determined with the Bradford reagent (Sigma-Aldrich).
(§4) Both ROS and RNS were measured by incubating CellROX (Life Technologies) with 30 μg of freshly extracted total proteins for 45 min at 37° C. in the dark in 96-wells plate in triplicate. Fluorescence intensity was measured using near-infra-red fluorescence setting with the plate reader Odyssey Infrared Imaging system scanner and Odyssey application software v3.0 (LI-COR Biosciences, Lincoln, NE).
SOD activity was measured with Superoxide Dismutase Activity Colorimetric Assay kit (Abcam, ab65354), following the manufacturer's instructions. […]

[2] = system: brain; assay: Brain ROS/RNS, antioxidant defense and bioenergetic/mitochondrial parameters at 21 days; assay type: in vivo, mouse
From the text: (b) Levels of the central bioenergetic metabolite Acetyl-CoA expressed in nmol/g. Expression of genes coding for PGC-lalpha quantified by RT-qPCR from RNA isolated from brains extracted from control and CLP mice with or without MnTBAP.
Data shown are mean values (±SD). Gray bars represent MnTBAP-treated mice from either CLP or control groups, and black bars represent placebo-treated mice from either CLP or Control groups. Two-way analyses of variance (ANOVAs) (CLP vs Control×MnTBAP vs Placebo) were performed. When a significant interaction was observed, planned comparisons were performed for the CLPI/Placebo group against the three other groups. The significance of the planned comparisons is indicated with asterisks (*p<0.05, **p<0.01, ***p<0.001, ****p<0.0001) .
as §1, §2, §3, §4
SOD activity was measured with Superoxide Dismutase Activity Colorimetric Assay kit (Abcam, ab65354), following the manufacturer's instructions. This measurement assesses SOD-dependent inhibition of superoxide anion reduction. Tests were performed with 30 μg of freshly extracted total proteins, quantified by Bradford assay, or with 10 μl of serum, in triplicate.
Total DNA was prepared using extraction buffer (0.2 mg ml^−1 proteinase K, 0.2% SDS and 5 mM EDTA in PBS) and incubated at 50° C. for 3 h. DNA was precipitated with 3 M sodium acetate (pH 5.2) and isopropanol for 20 min on ice before centrifugation at 8,000 g at 4° C. The DNA pellet was washed and briefly air-dried. qPCR amplification was performed on total DNA using the StepOne Plus RealTime PCR system (Applied Biosystems) and Power Sybr Green PCR Master mix (ABI) following the manufacturer's instruction. A fragment of mitochondrial COI gene, the established marker for mtDNA content in mouse cells, was amplified using the nuclear encoded Ndufv1 gene as endogenous reference. […]

[3] = CLP mice + MnTBAP compared to CLP-placebo mice, 21 days
[4] = CLP mice + MnTBAP vs CLP-placebo, 21 days after sepsis, remained different from Control-Placebo
[5] = MnTBAP in control mice vs Control-placebo mice
[6] = MnTBAP in control mice vs Control-placebo mice, p<0.0001
[7] = MnTBAP in control mice vs Control-placebo mice, p=0.0003
[8] = CLP mice + MnTBAP, 21 days after sepsis
[9] = CLP mice + MnTBAP, 21 days after sepsis, remained different from Control-Placebo

O=C(O)c1ccc(/C2=C3\C=CC(=N3)/C(c3ccc(C(=O)O)cc3)=c3/cc/c4[n]3[Mn]([Cl])[n]3c2ccc3/C(c2ccc(C(=O)O)cc2)=C2/C=CC(=N2)\C=4c2ccc(C(=O)O)cc2)cc1 [MnTBAP, Manganese (III) tetrakis (4-benzoic acid)porphyrin chloride]
microglial OXPHOS/glycolysis ATP balance [1, 3]: strong microglial metabolic shift from mitochondrial OXPHOS to glycolysis
microglial PGC1 alpha expression [1, 3]: increase
microglial mtDNA content [1, 3]: strong mtDNA content increase
microglial mtRNA 16S expression [1, 3]: strong increase
microglial mtRNA CytB expression [1, 3]: strong increase
microglial NRF2 transcript expression [1, 4]: significantly increasing
microglial ROS/RNS levels [1, 4]: significantly increasing
microglial SOD1 transcript expression [1, 4]: significantly increasing
microglial SOD2 transcript expression [1, 4]: significantly increasing
microglial SOD activity [1, 4]: significantly increasing
microglial catalase transcript expression [1, 4]: significantly increasing
sepsis-induced microglial reprogramming and alterations ([1]; CLP mice, 21 days after sepsis): successfully reversed
microglial bioenergetic metabolite acetyl-CoA level ([1]; CLP mice, systemic MnTBAP treatment, FIG. 8): reduction
microglial ATP generation [1, 5]: did not affect
microglial SOD activity [1, 5]: did not affect
microglial glycolysis contribution [1, 5]: did not affect
microglial mtDNA content ([1]; MnTBAP in control mice vs Control-placebo mice, 0.01): reduced
microglial NRF2 expression [1, 6]: slightly reduced
microglial SOD1 expression [1, 6]: slightly reduced
microglial mtRNA 16S level [1, 6]: reduced
microglial mtRNA CytB level [1, 6]: reduced
microglial PGC1 alpha expression [1, 7]: reduced
microglial SOD2 expression [1, 7]: slightly reduced
microglial catalase expression ([1]; MnTBAP in control mice vs Control-placebo mice, p=0.0036): slightly reduced
microglial ROS/RNS levels ([1]; MnTBAP in control mice vs Control-placebo mice, p=0.005): slightly reduced
brain acetyl-coA levels [2, 8]: strongly decreased
brain mtRNA 16S levels [2, 8]: strongly decreased
brain ATP production [2, 9]: significantly increasing
brain ROS/RNS levels [2, 9]: significantly increasing
brain SOD1 expression [2, 9]: significantly increasing
brain SOD activity levels [2, 9]: significantly increasing
sepsis-induced brain alterations ([2]; CLP mice, 21 days after sepsis): counteracted
brain PGC1 alpha expression [2, 5]: did not affect
brain acetyl-coA levels [2, 5]: did not affect
brain catalase expression [2, 5]: did not affect
brain ATP production [2, 6]: increase
brain NRF2 expression [2, 6]: increase
brain SOD1 expression [2, 6]: increase
brain SOD2 expression [2, 6]: increase
brain SOD activity [2, 6]: increase
brain mtDNA content [2, 6]: increase
brain mtRNA 16S level ([2]; MnTBAP in control mice vs Control-placebo mice, p=0.0005): increase
brain ROS/RNS levels ([2]; MnTBAP in control mice vs Control-placebo mice, p=0.001): increase
brain mtRNA CytB level ([2]; MnTBAP in control mice vs Control-placebo mice, p=0.04): increase
